Drawing on PubChem BioAssay AID720589 (Broad Institute, 2013), this text covers max activity for 65 compounds.

Active and inactive are the calls of the source.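 How the source made its calls: active means fitted curve drops below -35% activity at a concentration within twice the top valid tested dose; inconclusive means no clear call, values can overlap the other calls; inactive means signal rising instead of falling, among other cases.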

The nature of the first assay: HepG2 hepatoma cell cytotoxicity, dose response, cytotoxicity control, CellTiter-Glo luminescence, cherry-pick, set 3 (AID 720589). To be noted: HepG2 viability, ATP luminescence (CellTiter-Glo), 72 h; at 0.011 µM; hits give low values; 0% = untreated, negative = ATP loss.
Take `N#Cc1cccc(-c2ccc(C3[C@@H]4CN(C(=O)Cc5ccncc5)C[C@H]3N4)cc2)c1` (stereo not given in full): the max activity was 21% (inactive). Regarding `CCn1c(/C=N/NC(=O)c2ccc(OC)cc2)nc2ccccc21`, the max activity is -35.2% (inactive).

Take `COc1ccc(/C=C2/NC(=O)N(CC(=O)Nc3cccc(C)c3)C2=O)cc1O`: the max activity was 18.1% (inactive). Still for that read-out and setting: the result for `CCCCNC(=O)C(c1ccc(OCC(=O)OC)c(C(=O)OC)c1)N(CCOC)C(=O)CCCCCN1C(=O)NC(c2ccc(-c3ccccc3)cc2)C(C(=O)OCc2ccccc2)=C1C` (stereo not given) reads 32.5% (inactive); that for `COc1ccc(N=C2C(=O)Nc3ccc(C)c(Br)c32)cc1`, 23.9% (inactive). With `Cc1cccc(/C=N/Nc2ccc3ccccc3n2)c1`, the max activity is 29% (inactive). In the case of `COc1ccc(C=NNc2nc3ccccc3s2)cc1`, the max activity is -25.7% (inactive).

For the compound `COC(=O)C[C@H]1CC[C@H]2[C@H](COc3ccc(NC(=O)Nc4cccc(Cl)c4)cc3C(=O)N2C)O1`, the max activity is -21.5% (inactive).

Still in this assay, the particulars now being: HepG2 viability, ATP luminescence (CellTiter-Glo), 72 h; at 0.012 µM; hits give low values; 0% = untreated, negative = ATP loss.
As to `CN(C)C(=O)c1ccc(-c2ccccc2[C@@H]2[C@@H](CO)N(C(=O)C3CC3)[C@H]2C#N)cc1`, the max activity is 20.5% (inactive).

Still in this assay, the particulars now being: HepG2 viability, ATP luminescence (CellTiter-Glo), 72 h; at 0.035 µM; hits give low values; 0% = untreated, negative = ATP loss.
For the compound `Nc1ncn([C@@H]2O[C@H](CO)[C@@H](O)[C@H]2O)c(=O)n1`, the max activity was 16% (inactive). In the case of `O=C(CCCN1C(=O)/C(=C/c2ccccc2Cl)SC1=S)NNC(=O)c1ccc(Cl)cc1Cl`, the max activity was -21.5% (inactive). Consider `COc1ccc(CCCNC(=O)C2Cc3c(-c4ccc5c(c4)OCO5)ccnc3O2)cc1` (stereo not given), for which the max activity was -34% (inactive).

The same assay, now with this note: HepG2 viability, ATP luminescence (CellTiter-Glo), 72 h; at 0.1 µM; hits give low values; 0% = untreated, negative = ATP loss.
`CC(=O)Nc1cc(C(=O)NCc2ccco2)ccc1Sc1ccc(F)cc1`: the max activity is -21.9% (inactive). Consider `CCCNC(=O)N1[C@H](C#N)[C@H](c2ccc(C#Cc3ccc(F)cc3)cc2)[C@H]1CO`, for which the max activity is -28.6% (inactive). Same read-out and setting: in the case of `CCCNC(=O)[C@@H]1[C@@H](CO)[C@@H]2Cn3c(ccc(-c4ccccc4)c3=O)[C@H]1N2C(=O)CC` it was -16.5% (inactive); in that of `CCOc1ccc(N=C2C(=O)Nc3ccc(C)c(Br)c32)cc1`, 11.1% (inactive); in that of `COC(=O)C[C@H]1C=C[C@@H](NC(=O)Nc2ccc(C(F)(F)F)cc2)[C@H](CO)O1`, -17.7% (inactive). Same read-out and setting: in the case of `C[C@H](CO)N1C[C@H](C)[C@H](CN(C)Cc2ccc(C(F)(F)F)cc2)Oc2c(NS(=O)(=O)c3ccc(Cl)cc3)cccc2C1=O` it was -20% (inactive); in that of `C[C@H]1CN([C@@H](C)CO)C(=O)Cc2cc(NC(=O)CCCCCC(=O)Nc3ccccc3N)ccc2O[C@H]1CN(C)Cc1ccc(Oc2ccccc2)cc1`, -23.9% (inactive). Still for that read-out and setting: in the case of `O=C(NCCc1ccccc1)c1ccccc1NC(=O)C1CCCO1` (stereo not given) it was -10.9% (inactive); in that of `O=C(NC(=O)c1ccccc1)Nc1ccccc1`, -38.9% (inactive); in that of `CN(C(=O)COC(=O)c1cc(-c2ccccc2Cl)nc2ccccc12)C1CCS(=O)(=O)C1` (stereo not given), -27.5% (inactive).

Still in this assay, the particulars now being: HepG2 viability, ATP luminescence (CellTiter-Glo), 72 h; at 0.3 µM; hits give low values.
For `O=C1NC(=O)N(CCc2ccc(F)cc2)C(=O)/C1=C/C=C/c1ccccc1`, the max activity was -15.6% (inactive).

The same assay, now with this note: HepG2 viability, ATP luminescence (CellTiter-Glo), 72 h; at 0.3 µM; hits give low values; 0% = untreated, negative = ATP loss.
Consider `Cc1ccc(/C=C2\SC(=S)N(CCC(=O)NNC(=O)c3ccccc3O)C2=O)cc1`, for which the max activity is -42.1% (inactive).

With `COc1ccc(C2=Nn3c(nnc3-c3ccccc3F)SC2)cc1OC1CCOC1` (stereo not given), the max activity was -28.9% (inactive). With `OCCN1CCN(C(=S)c2ccc(-c3ccccc3)cc2)CC1`, the max activity is -28.5% (inactive). On the same count and under the same terms, in the case of `Cc1cc(C(=O)Nc2ccc3c(c2)C(=O)N(C)[C@@H]2CC[C@@H](CC(=O)NCc4ccc(-c5ccccc5)cc4)O[C@H]2CO3)no1` it was -28.4% (inactive); in that of `O=C1c2ccccc2C(=O)N1CCCCNc1ccccc1`, -34.9% (inactive); in that of `COc1cc(/C=C/C(=O)CC(=O)/C=C/c2ccc(O)c(OC)c2)ccc1O`, -27.1% (inactive). Still for that read-out and setting: the result for `COC(=O)C[C@@H]1CC[C@@H]2[C@H](COc3ccc(NC(=O)c4cccc(F)c4)cc3C(=O)N2C)O1` reads -26.8% (inactive); that for `COc1cc(/C=C/C(=O)/C=C(O)/C=C/c2ccc(O)c(OC)c2)ccc1O`, -31.5% (inactive).

Still in this assay, the particulars now being: HepG2 viability, ATP luminescence (CellTiter-Glo), 72 h; at 0.8 µM; hits give low values; 0% = untreated, negative = ATP loss.
For the compound `Cc1ccc(S(=O)(=O)N(C)C[C@@H]2Oc3ccc(NC(=O)CCCCCC(=O)Nc4ccccc4N)cc3CC(=O)N([C@@H](C)CO)C[C@@H]2C)cc1`, the max activity was -38.7% (inactive).

Staying with this assay, now noted: HepG2 viability, ATP luminescence (CellTiter-Glo), 72 h; at 0.9 µM; hits give low values; 0% = untreated, negative = ATP loss.
For the compound `CCc1ccc(/C=C2\SC(=S)N(CCCC(=O)Nc3cc(C)on3)C2=O)cc1`, the max activity is -32.1% (inactive). Same read-out and setting: in the case of `COc1ccc(OC)c(-c2nnc3n2N=C(c2ccc(OC)c(OC4CCCC4)c2)CS3)c1` it was -30% (inactive); in that of `CCc1ccc2oc(C(=O)N3CCN(c4ccccc4OC)CC3)cc(=O)c2c1`, -16.2% (inactive). Same read-out and setting: the result for `Brc1ccc(CSc2nnc(-c3ccco3)o2)cc1` reads -28.4% (inactive).

The assay is the same for the next values; noted with them: HepG2 viability, ATP luminescence (CellTiter-Glo), 72 h; at 2.85 µM; hits give low values.
For the compound `C[C@]12CC[C@H](O)C[C@H]1CC[C@@H]1C2CC[C@]2(C)[C@@H](C3=CC(=O)OC3)[C@@H](O)C[C@]12O` (stereo not given in full), the max activity is -53.6% (inactive).

The same assay, now with this note: HepG2 viability, ATP luminescence (CellTiter-Glo), 72 h; at 2.85 µM; hits give low values; 0% = untreated, negative = ATP loss.
For the compound `COc1ccc(C(=O)NCCNc2nc3cc(C)cc(C)c3cc2C#N)c(OC)c1`, the max activity is -25.6% (inactive). The same measure, in the same setting: the result for `N#C[C@H]1[C@H](c2ccc(C#Cc3ccccc3F)cc2)[C@@H](CO)N1C(=O)C1CCOCC1` reads -21.8% (inactive); that for `O=C(CN1C(=O)C(=O)c2ccccc21)c1ccc(Cl)cc1`, -20.2% (inactive); that for `C(=N\Nc1ccc2ccccc2n1)/c1ccc2c(c1)OCO2`, -36.5% (inactive).

As for `Oc1c(Cl)cc(Cl)c(Cl)c1Cc1c(O)c(Cl)cc(Cl)c1Cl`, the max activity was -40.1% (inactive).

On to `COc1cc(OC)cc(-c2cc3nc(C)c(CCC(=O)NCc4ccccc4)c(C)n3n2)c1`, for which the max activity was 23.9% (inactive). The same measure, in the same setting: in the case of `CCCCCCN(C(=O)CCCCCN1C(=O)NC(c2ccc(Cl)cc2)C(C(=O)OCc2ccccc2)=C1C)C(C(=O)NCCCC)c1ccc(OCC(=O)OC)c(C(=O)OC)c1` (stereo not given) it was -30.9% (inactive). Still for that read-out and setting: the result for `CCCCCCCCCCCCCCCCCCNc1ccn(C2OC(COP(=O)(O)OCC3OC(n4cc(F)c(=O)[nH]c4=O)CC3O)C(O)C2O)c(=O)n1` (stereo not given) reads -36% (inactive); that for `Cc1ccccc1N=CC1=C(O)c2ccccc2C1=O`, 18.8% (inactive).

Staying with this assay, now noted: HepG2 viability, ATP luminescence (CellTiter-Glo), 72 h; at 8 µM; hits give low values; 0% = untreated, negative = ATP loss.
Turning to `CC(C)c1ccccc1NC(=O)COC(=O)CCN1C(=O)/C(=C\C=C\c2ccccc2)SC1=S`, the max activity was -10% (inactive).

On to `Nc1nc2cc3c(cc2cc1C(=O)NCCc1c[nH]c2ccccc12)OCO3`, for which the max activity was -32.5% (inactive). Still for that read-out and setting: the result for `C[C@@H]1CN([C@@H](C)CO)C(=O)c2cccc(NC(=O)Nc3cccc4ccccc34)c2O[C@@H]1CN(C)Cc1ccc(C(=O)Nc2ccccc2N)cc1` reads -36.9% (inactive).

`CCc1ccc(/C=C2\SC(=S)N(CCCC(=O)NC3=NCCS3)C2=O)cc1`: the max activity is -19% (inactive). Turning to `O=C(Cc1nn[nH]n1)c1ccccc1O`, the max activity was -19.1% (inactive).

Consider `COC(=O)C[C@H]1CC[C@@H](NC(=O)Nc2ccc(C(F)(F)F)cc2)[C@H](CO)O1`, for which the max activity is -14.3% (inactive). Consider `O=C(O)c1ccc(N/N=C/c2c(F)cccc2Cl)cc1`, for which the max activity is -13.6% (inactive). Still for that read-out and setting: in the case of `C[C@H](CO)N1C[C@H](C)[C@H](CN(C)Cc2ccc(C(F)(F)F)cc2)Oc2ccc(NC(=O)CCCCCC(=O)Nc3ccccc3N)cc2CC1=O` it was -23.5% (inactive); in that of `CN(c1ccc(NC(=O)CCc2c[nH]c3ccccc23)cc1)c1ccccn1`, -31.2% (inactive). Same read-out and setting: the result for `N#CC1=C(N)Oc2cc(N)ccc2C1c1cccc(F)c1` (stereo not given) reads -30% (inactive).

The assay is the same for the next values; noted with them: HepG2 viability, ATP luminescence (CellTiter-Glo), 72 h; at 23.5 µM; hits give low values; 0% = untreated, negative = ATP loss.
Take `CCCNC(=O)N1[C@H](C#N)[C@H](c2ccc(C#Cc3cccc(F)c3)cc2)[C@H]1CO`: the max activity is 22.8% (inactive).

Staying with this assay, now noted: HepG2 viability, ATP luminescence (CellTiter-Glo), 72 h; at 26 µM; hits give low values; 0% = untreated, negative = ATP loss.
Turning to `CC1=NC(=O)C(N=Nc2cccc(C(=O)O)c2)N1c1ccccc1` (stereo not given), the max activity was -23.4% (inactive).

Take `COc1ccc(/C=C(/C(=O)c2cccs2)N2C=CC=CC2=C(C#N)C#N)cc1`: the max activity was -33.6% (inactive). Still for that read-out and setting: the result for `O=C1C(=O)N(CCS(=O)(=O)c2ccccc2)c2ccccc21` reads 24.1% (inactive); that for `CC(C)(C)c1ccc(Oc2ccc(NC(=O)C3CC=CCC3C(=O)O)cc2)cc1` (stereo not given), 17.4% (inactive); that for `CC1=NN(c2ccc(C)cc2)C(=O)/C1=C\C=C\c1ccccc1`, -23.5% (inactive).

With `Cc1nn(-c2ccc(F)cc2)c2nc(N)c(C#N)c(-c3ccc(O)c(O)c3)c12`, the max activity was -39.7% (inactive). Regarding `CC(C)N1C/C(=C/c2cccnc2)C(=O)/C(=C/c2cccnc2)C1`, the max activity is -29.5% (inactive). Consider `O=C(C[C@H]1C[C@H]2c3cc(NS(=O)(=O)c4ccc(F)cc4)ccc3O[C@H]2[C@H](CO)O1)NCc1ccc(Oc2ccccc2)cc1`, for which the max activity was 21.5% (inactive).
